Measurements taken from patent publication US10167300B2, “Metalloenzyme inhibitor compounds as fungicides” (priority 2014, dated 2019).
Like-named read-outs stand apart in the source and are kept apart here.

Legend:
[1] = system: Mycosphaerella graminicola; Anamorph: Septoria tritici; Bayer Code SEPTTR (field isolate collected from Wellsbourne, England in 2012, FI SEPTTR); assay: Type B (low volume, EC formulation, track sprayer 200 L/ha) assay, leaf blotch of wheat, SEPTTR field isolate (FI SEPTTR); assay type: in vivo, Mycosphaerella graminicola on wheat plants (variety Yuma); settings: field isolate, low volume EC, 100 g/ha, wheat (Yuma); for Disease Control, FI SEPTTR Type B Assay (100 g/ha) 3 DC: 3 Day Curative; for Disease Control, FI SEPTTR Type B Assay (100 g/ha) 3 DP: 3 Day Protectant
In short: (§1)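 Wheat seedlings (Yuma, first leaf emerged) sprayed with acetone/Triton X-100 solutions (Type A) or 10% EC diluted in 0.1% Trycol at 200 L/ha (Type B), inoculated before or after spraying. Inoculated plants held 3 days at 20 °C, 100% RH, then greenhouse; % disease control from severity versus untreated plants.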

[2] = system: Mycosphaerella graminicola; Anamorph: Septoria tritici; Bayer Code SEPTTR (standard laboratory isolate, SI SEPTTR); assay: Type A (high volume) assay, leaf blotch of wheat, standard laboratory SEPTTR isolate (SI SEPTTR); assay type: in vivo, Mycosphaerella graminicola on wheat plants (variety Yuma); settings: standard laboratory isolate, high volume, 50 ppm, wheat (Yuma); for pest or weed control at 50 ppm: Zymoseptoria tritici
In short: as §1

[3] = system: Mycosphaerella graminicola; Anamorph: Septoria tritici; Bayer Code SEPTTR (standard laboratory isolate, SI SEPTTR); assay: Type B (low volume, EC formulation, track sprayer 200 L/ha) assay, leaf blotch of wheat, standard laboratory SEPTTR isolate (SI SEPTTR); assay type: in vivo, Mycosphaerella graminicola on wheat plants (variety Yuma); settings: Zymoseptoria tritici, 72 h, standard laboratory isolate, low volume EC, 100 g/ha, wheat (Yuma)
In short: as §1

[4] = Type B (low volume, EC formulation, track sprayer 200 L/ha) assay, leaf blotch of wheat, SEPTTR field isolate (FI SEPTTR); assay type: in vivo, Mycosphaerella graminicola on wheat plants (variety Yuma); settings: Zymoseptoria tritici, 72 h, field isolate, low volume EC, 100 g/ha, wheat (Yuma)
In short: as §1

[5] = 24 h, 1 Day Protectant, read-out: Disease Control, SI SEPTTR Type A Assay (50 ppm) 1 DP
[6] = 72 h, 3 Day Curative, read-out: Disease Control, SI SEPTTR Type A Assay (50 ppm) 3 DC
[7] = 3 Day Curative, read-out: Disease Control, SI SEPTTR Type B Assay (100 g/ha) 3 DC
[8] = 3 Day Protectant, read-out: Disease Control, SI SEPTTR Type B Assay (100 g/ha) 3 DP
[9] = 3 Day Curative, read-out: Disease Control, FI SEPTTR Type B Assay (100 g/ha) 3 DC
[10] = 3 Day Protectant, read-out: Disease Control, FI SEPTTR Type B Assay (100 g/ha) 3 DP

melting point [°C] | Structure (SMILES) | Disease Control, FI SEPTTR Type B Assay (100 g/ha) 3 DC [1] | Disease Control, FI SEPTTR Type B Assay (100 g/ha) 3 DP [1] | pest or weed control at 50 ppm [2, 5] [%] | pest or weed control at 50 ppm [2, 6] [%] | pest or weed control at 100 g/ha [3, 7] [%] | pest or weed control at 100 g/ha [3, 8] [%] | pest or weed control at 100 g/ha [4, 9] [%] | pest or weed control at 100 g/ha [4, 10] [%] | Disease Control, SI SEPTTR Type A Assay (50 ppm) 1 DP ([2]; 1 Day Protectant)
 | CC(C)(C)C(O)(Cc1cncnc1)c1ccc(-c2ccc(SC(F)(F)F)cc2)cn1 (centres unmarked) [Compound 231] | D (<40) | B (60-79) |  |  |  |  |  |  | 
 | CCOC(CC)(c1cncnc1)c1ccc(-c2ccc(OC(F)(F)F)cc2F)cn1 (centres unmarked) [Compound 193] | D (<40) | B (60-79) |  |  |  |  |  |  | 
150 to 155 | CC(O)(Cc1cncnc1)c1ccc(-c2ccc(Cl)cc2)cn1 (centres unmarked) [Compound 25, 2-[5-(4-chlorophenyl)-2-pyridyl]-1-pyrimidin-5-yl-propan-2-ol] |  |  | 40 to 59 | 80 to 100 |  |  |  |  | 
 | CC(C)(C)C(O)(c1cncnc1)c1ccc(-c2ccc(C(F)(F)F)cc2)cn1 (centres unmarked) [Compound 96] |  |  | 80 to 100 |  | 80 to 100 | 80 to 100 | 80 to 100 | 80 to 100 | 
 | Cc1ncc(C(O)(c2ccc(-c3ccc(OC(F)(F)F)cc3)cn2)C(C)(C)C)cn1 (centres unmarked) [Compound 83] |  |  | 40 to 59 |  | < 40 | 40 to 59 | 80 to 100 | 40 to 59 | 
 | Cc1cc(C2(C#N)CC2)ccc1-c1ccc(C(O)(c2cncnc2)C(C)(C)C)nc1 (centres unmarked) [Compound 158] |  |  | 80 to 100 |  | 80 to 100 | 80 to 100 | 80 to 100 | 80 to 100 | 
 | OC(Cc1cncnc1)(c1ccc(-c2ccc(Cl)cc2)cn1)C1CC1 (centres unmarked) [Compound 39] |  |  | 80 to 100 | 80 to 100 | 80 to 100 | 80 to 100 | 60 to 79 | 40 to 59 | 
 | CC(C)(C)C(O)(c1cncnc1)c1ccc(-c2cccc(OC(F)(F)F)c2)cn1 (centres unmarked) [Compound 103] |  |  | 80 to 100 |  | 60 to 79 | 80 to 100 | < 40 | 80 to 100 | 
 | CC(C)C(O)(c1cncnc1)c1ccc(Oc2ccc(Cl)cn2)cn1 (centres unmarked) [Compound 13] |  |  | 80 to 100 | 80 to 100 | 60 to 79 | 80 to 100 | 40 to 59 | 60 to 79 | 
 | OC(c1cccnc1)(c1ccc(-c2ccc(OC(F)(F)F)cc2)cn1)C1CC1 (centres unmarked) [Compound 78] |  |  | 80 to 100 |  | 80 to 100 | 80 to 100 | 60 to 79 | 60 to 79 | 
 | CC(C)(C)C(O)(c1cccnc1)c1ccc(-c2ccc(OC(F)(F)F)cc2)cn1 (centres unmarked) [Compound 80] |  |  | 80 to 100 |  | 80 to 100 | 80 to 100 | 80 to 100 | 80 to 100 | 
 | CC(C)(C)C(O)(c1cncnc1)c1ccc(-c2ccc(OC(F)(F)F)cc2F)cn1 (centres unmarked) [Compound 124, 1-(5-(2-fluoro-4-(trifluoromethoxy)phenyl)pyridin-2-yl)-2,2-dimethyl-1-(pyrimidin-5-yl)propan-1-ol] |  |  | 80 to 100 |  | 80 to 100 | 80 to 100 | 80 to 100 | 80 to 100 | 
 | Cc1cc(-c2ccc(CC(F)(F)F)nc2)cnc1C(O)(c1cncnc1)C(C)(C)C (centres unmarked) [Compound 131] |  |  | 80 to 100 |  | 80 to 100 | 60 to 79 | 60 to 79 | 60 to 79 | 
 | CC(C)(C)C(O)(c1cncnc1)c1ccc(-c2ccc(OC(F)(F)F)c(F)c2)cn1 (centres unmarked) [Compound 106] |  |  | 80 to 100 |  | 80 to 100 | 80 to 100 | 80 to 100 | 80 to 100 | 
 | CC(C)(C)C(O)(c1cncnc1)c1ccc(-c2ccc(C(F)(F)F)nc2)cn1 (centres unmarked) [Compound 107] |  |  | 80 to 100 |  | 80 to 100 | 60 to 79 | 80 to 100 | 60 to 79 | 
 | CC(C)C(O)(c1cncnc1)c1ccc(Oc2ccc(C(F)(F)F)cc2)cn1 (centres unmarked) [Compound 3, 2-methyl-1-(pyrimidin-5-yl)-1-(5-(4-(trifluoromethyl)-phenoxy)pyridin-2-yl)propan-1-ol] |  |  |  | 80 to 100 | 80 to 100 | 80 to 100 | 60 to 79 | 40 to 59 | D (<40)
 | Cc1cc(-c2ccc(C(O)(c3cncnc3)C(C)(C)C)nc2)ccc1OC(F)(F)F (centres unmarked) [Compound 116] |  |  | 60 to 79 |  | 80 to 100 | 80 to 100 | 80 to 100 | 60 to 79 | 
